# Results published in article PMC12120022, “Discovery and chemical optimisation of a potent, Bi-cyclic antimicrobial inhibitor of Escherichia coli PBP3” (Communications Biology, 2025).
# Like-named read-outs stand apart in the source and are kept apart here. *1 amine or outer side, *2 acyl side, *3 side chain or, on linkers, in order; H or OH if unused. Where a SMILES comes first, the peptide text is derived from it. Bridges are numbered along the chain shown (N, C = ends). [ ]: non-standard residue; d: D form. TATA = O=C(CC[*:1])N1CN(C(=O)CC[*:2])CN(C(=O)CC[*:3])C1; Trp(6-Cl) = N[C@@H](Cc1c[nH]c2cc(Cl)ccc12)C(=O)O; hArg = N=C(N)NCCCC[C@H](N)C(=O)O
# Key:
# [1] = test system: Enterobacter cloacae AR0038; assay: MIC; format: cell-based; settings: caMHB, replicates listed; for MIC: Enterobacter cloacae, AR0038
# Description: (§1) Minimal inhibition concentration (MIC) assays were performed in accordance with CLSI standards, using cation-adjusted Mueller Hinton broth (caMHB; Sigma Aldrich) unless otherwise specified. Induction of pore expression in hyperporinated strains E. coli GKCW101 and GKCW102 was performed by addition of 0.1% (w/v) L-arabinose to cultures at OD600 ~ 0.3, with caMHB as the culture medium.
# Proteus mirabilis AR159 = assay: MIC; format: cell-based; settings: caMHB, replicates listed; for MIC: Proteus mirabilis, AR159
# Description: as §1
# [2] = test system: Acinetobacter baumannii NCTC 12156; assay: MIC; format: cell-based; settings: caMHB, replicates listed
# Description: as §1
# [3] = test system: Acinetobacter baumannii AR0275; assay: MIC; format: cell-based; settings: caMHB, replicates listed; for MIC: Acinetobacter baumannii, AR0275
# Description: as §1
# [4] = test system: Enterobacter cloacae KPC114; assay: MIC; format: cell-based
# Description: as §1
# [5] = test system: Escherichia coli ATCC BAA-2469; assay: MIC; format: cell-based; settings: caMHB, replicates listed; for MIC: Escherichia coli, ATCCBAA2469
# Description: as §1
# [6] = test system: Citrobacter freundii AR0116; assay: MIC; format: cell-based; settings: caMHB, replicates listed; for MIC: Citrobacter freundii, AR0116
# Description: as §1
# E. coli ATCC 25922 = assay: MIC, wild-type strain; format: cell-based, Escherichia coli; settings: for MIC E. coli ATCC 25922: MHB, biological replicates or their range
# Description: as §1
# E. coli GKCW102 (EcPore) = settings: caMHB, biological replicates or their range
# Description: (§2) To evaluate the engagement of EcPBP3 by a bicyclic peptide in whole cells lacking the outer membrane permeability barrier, peptides were screened in ‘hyperporinated’ E. coli strains in which a constitutively open FhuA pore (FhuAΔC/Δ4L, lacking N-terminal cork domain and external loops) was chromosomally expressed under control of an arabinose-inducible promoter.
# as §1
# E. coli GKCW101 (WT) = settings: caMHB; biological replicates or their range
# Description: as §2, §1
# [7] = test system: Proteus mirabilis ATCC 43071; assay: MIC; format: cell-based; settings: caMHB; replicates listed
# Description: as §1
# [8] = test system: Escherichia coli NCTC 13441; assay: MIC; format: cell-based; settings: caMHB, replicates listed
# Description: as §1
# Escherichia coli UTI89 = assay: MIC; format: cell-based; settings: caMHB; replicates listed
# Description: as §1
# [9] = test system: Klebsiella pneumoniae B454; assay: MIC; format: cell-based; settings: caMHB, replicates listed
# Description: as §1
# [10] = test system: Klebsiella pneumoniae ATCC 43816; assay: MIC; format: cell-based; settings: caMHB; replicates listed
# Description: as §1
# [11] = test system: Enterobacter cloacae B173; assay: MIC; format: cell-based; settings: caMHB; replicates listed
# Description: as §1
# [12] = test system: Pseudomonas aeruginosa ATCC 27853; assay: MIC; format: cell-based; settings: caMHB; replicates listed
# Description: as §1
# [13] = test system: Citrobacter freundii B121; assay: MIC; format: cell-based; settings: caMHB; replicates listed
# Description: as §1
# [14] = test system: Klebsiella pneumoniae ATCC 700603; assay: MIC; format: cell-based; settings: caMHB; replicates listed
# Description: as §1
# [15] = test system: Enterobacter cloacae AR0032; assay: MIC; format: cell-based; settings: caMHB; replicates listed
# Description: as §1
# [16] = test system: Pseudomonas aeruginosa NCTC 13437; assay: MIC; format: cell-based; settings: caMHB, replicates listed
# Description: as §1
# [17] = test system: Klebsiella pneumoniae KPNIH1; assay: MIC; format: cell-based; settings: caMHB, replicates listed
# Description: as §1
# EcPBP3 [18] = target: T1, EcPBP3 (Escherichia coli, UniProt P0AD68); assay: SPR binding assay on immobilised EcPBP3; settings: 37 °C, kinetic fitting; NB = no binding at 2500 nM (Tables S-4, S-5) or 5000 nM (Table 1); read-out: Kd (nM) by SPR (geomean)
# T1 construct: For assays, selections and SPR a construct with residues 60–588 which has the N-terminal domain, but not the transmembrane helix, was used; made in house
# T1 sequence (P0AD68 60-588): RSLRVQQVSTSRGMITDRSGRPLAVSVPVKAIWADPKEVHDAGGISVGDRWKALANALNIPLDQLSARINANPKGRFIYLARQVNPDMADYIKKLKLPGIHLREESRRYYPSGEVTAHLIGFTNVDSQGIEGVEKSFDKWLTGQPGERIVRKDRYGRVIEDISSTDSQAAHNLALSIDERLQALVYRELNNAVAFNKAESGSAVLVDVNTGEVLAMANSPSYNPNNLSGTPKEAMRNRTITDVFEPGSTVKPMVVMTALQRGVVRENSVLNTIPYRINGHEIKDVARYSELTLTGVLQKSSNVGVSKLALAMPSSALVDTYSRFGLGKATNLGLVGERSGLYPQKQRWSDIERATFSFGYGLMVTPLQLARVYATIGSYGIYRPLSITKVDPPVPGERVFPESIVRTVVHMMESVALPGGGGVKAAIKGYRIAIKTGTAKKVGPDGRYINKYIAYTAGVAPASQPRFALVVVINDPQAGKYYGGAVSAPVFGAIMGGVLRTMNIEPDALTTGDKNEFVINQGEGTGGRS
# Procedure, shortened: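 EcPBP3 amine-coupled to CM5 chip (1500-2500 RU); compounds injected at 37 °C in 10 mM HEPES pH 8.0, 200 mM NaCl, 0.05% Tween-20, 2% DMSO, 50 μL min^–1, 150 s contact, 2400 s dissociation. Double-referenced sensorgrams kinetically fitted for Kd; geometric mean of ≥2 biological replicates.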
# PBPs in E. coli = assay: Bocillin FL staining of PBPs extracted from bacterial membranes; format: binding, E. coli strain DC2; settings: peptides at 3 µM, membranes of E. coli DC2
# Description: Staining of PBPs extracted from bacterial membranes with Bocillin FL was used to determine the binding of peptide 2 (and its all-D analogue) to other PBPs in E. coli[8].
# Method was adapted from that described by Kocaoglu and Carlson[8]. E. coli strain DC2 cells were grown overnight at 37 °C then diluted 100-fold and allowed to grow at 37 °C to an OD600 of 0.5 in Lysogeny broth (LB). The cells were then centrifuged (3220 x g for 10 min at room temperature) and washed once in PBS (pH 7.4) then pelleted and resuspended in ice-cold PBS. Cells were sonicated (Fisherbrand™ Model 505 Sonic Dismembrator) on ice for five 10 s intervals with 15 s cooling time in between rounds. The membranes were collected by centrifugation (21,000 x g for 15 min at 4 °C) and resuspended the pellet in 100 µL PBS using a blunt needle. The resuspended membranes were incubated with the indicated compound for 15 min at room temperature then 10 µg ml^–1 BOCILLIN-Fl (Invitrogen) was added and reacted with the resuspended membranes for 10 min. […] The total protein content of each condition was normalised to 2.5 mg ml^–1 by measuring the absorbance at A280 and adjusting where necessary with the addition of PBS. […] Following fluorescence imaging, the gel was stained with InstantBlue Ultrafast protein stain (Abcam), washed twice in water and imaged in brightfield with an iBright FL1500.
# EcPBP3 [19] = target: T1, EcPBP3; assay: Fluorescence polarisation competition assay with fluorescent Bicycle tracer (tracer 1 / BCY12820); format: binding; settings: protein 9.4 nM sets sensitivity limit, top concentration 5 µM, read-out: Ki (nM) by fluorescence polarisation with tracer 1 (BCY12820 as tracer), Geometric mean (Lower 95% CI; Upper 95% CI, n=number of values)
# Procedure, shortened: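 Unlabelled peptide competes with fluorescent Bicycle tracer (1 nM, as added) for EcPBP3 (9.4 nM, as added) in 10 mM HEPES, 2% glycerol, 300 mM NaCl, pH 8.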
# EcPBP3 [20] = target: T1, EcPBP3; assay: Fluorescence polarisation competition assay with BOCILLIN-FL as tracer; format: binding; settings: competition format, NB, non-binder (100 μM top concentration)
# Description: Binding of output peptides to EcPBP3 was evaluated using a fluorescence polarisation (FP) assay.
# […] 10 µL of protein (9.4 nM) was mixed with either 5 µL of peptide or 5 µL of buffer and then the assay was initiated by the addition of 10 µL of tracer (1 nM) (final volume 25 µL), in a black 384 low bind, low volume plate (Corning). The buffer was 10 mM HEPES (Sigma), 2% (v/v) glycerol (Sigma), 300 mM NaCl (Sigma), adjusted to pH 8. The plate was incubated for 1 h at 25 °C and then read in a PHERAstar FS (BMG) using with an “FP 485 520 520” optic module (excitation 485 nm, emission 520 nm). The gain was determined immediately prior to the read on a tracer-only well.
# Dotmatics (Dotmatics) workflows performing the above calculations were used to process the data. Values quoted are the geometric means of at least 2 repeats.
# Mouse blood stability = format: in vitro ADME, CD-1 mice; settings: CD-1, mouse, whole blood (EDTA as anticoagulant), 37 °C, SAR peptides, read-out: Blood stability (t1/2) (converted)
# Description: Stability assays were performed using freshly collected matrices from CD-1 mice, with anticoagulant as stated per dataset. Compound stocks in DMSO were tested at 5 μM final concentration (0.5% (v/v) DMSO). Compounds were incubated in blood or plasma at 37 °C for 24 h, with sampling at 0, 1, 2, 4, 6 and 24 h. Samples were prepared via protein precipitation using organic solvent containing internal standard, and analyzed by LC-MS/MS. Compound remaining was quantified based on the ratio of analyte to internal standard, and the half-life (t1/2) was calculated from a log linear plot of % remaining versus time.
molecule,measurement,setting,value
"C[C@@H](O)[C@H]1C(=O)N2C(C(=O)O)=C(S[C@@H]3CN[C@H](C(=O)N(C)C)C3)[C@H](C)[C@H]12 [Meropenem, reference compound]",MIC,[1],> 2 µg/mL
same,MIC,Proteus mirabilis AR159,> 2 µg/mL
same,MIC,"[2]; Acinetobacter baumannii, NCTC12156",1.1 µg/mL
same,MIC,[3],> 2 µg/mL
same,MIC,"[4]; Enterobacter cloacae, KPC114, read-out: MIC Enterobacter cloacae KPC114",> 2 µg/mL
same,MIC,[5],> 2 µg/mL
same,MIC,[6],> 2 µg/mL
ACSFPKCPWVEGCA* [Conjugate 2],MIC E. coli ATCC 25922,E. coli ATCC 25922,1 to 2 µg/mL
same,MIC Escherichia coli ATCC 25922,"E. coli ATCC 25922; caMHB, replicates listed, number in brackets","2,8 μg mL-1"
same,MIC E. coli GKCW102 (EcPore),E. coli GKCW102 (EcPore),0.5 to 1 µg/mL
same,MIC E. coli GKCW101 (WT),E. coli GKCW101 (WT),4 to 8 µg/mL
same,MIC Enterobacter cloacae AR0038,[1],8 µg/mL
same,MIC Proteus mirabilis ATCC 43071,[7],> 64 µg/mL
same,MIC Proteus mirabilis AR159,Proteus mirabilis AR159,> 64 µg/mL
same,MIC Escherichia coli NCTC 13441,[8],"4,8 μg mL-1"
same,MIC Escherichia coli UTI89,Escherichia coli UTI89,8 µg/mL
same,MIC Klebsiella pneumoniae B454,[9],"16,32 μg mL-1"
same,MIC Klebsiella pneumoniae ATCC 43816,[10],"8,16 μg mL-1"
same,MIC Acinetobacter baumannii NCTC 12156,[2],> 64 µg/mL
same,MIC Enterobacter cloacae B173,[11],16 µg/mL
same,MIC Pseudomonas aeruginosa ATCC 27853,[12],> 64 µg/mL
same,MIC Citrobacter freundii B121,[13],8 µg/mL
same,MIC Klebsiella pneumoniae ATCC 700603,[14],16 µg/mL
same,MIC Acinetobacter baumannii AR0275,[3],> 64 µg/mL
same,MIC Enterobacter cloacae KPC114,"[4]; caMHB, replicates listed",8 µg/mL
same,MIC Escherichia coli ATCC BAA-2469,[5],"8,8 μg mL-1"
same,MIC Citrobacter freundii AR0116,[6],8 µg/mL
same,MIC Enterobacter cloacae AR0032,[15],4 µg/mL
same,MIC Pseudomonas aeruginosa NCTC 13437,[16],> 64 µg/mL
"C[C@H]1COc2c(N3CCN(C)CC3)c(F)cc3c(=O)c(C(=O)O)cn1c23 [Levofloxacin, reference compound]",MIC,[1],> 2 µg/mL
same,MIC,Proteus mirabilis AR159,2.2 µg/mL
same,MIC,"[8]; Escherichia coli, NCTC13441",> 2 µg/mL
same,MIC,"[9]; Klebsiella pneumoniae, B454",> 2 µg/mL
same,MIC,[3],2.2 µg/mL
same,MIC,[5],> 2 µg/mL
same,MIC,[6],> 2 µg/mL
same,MIC,"[16]; Pseudomonas aeruginosa, NCTC13437",2.2 µg/mL
same,MIC,[17],> 2 µg/mL
CC(C)[C@@H]1NC(=O)[C@H](Cc2c[nH]c3ccccc23)NC(=O)[C@@H]2CCCN2C(=O)[C@@H]2CSCCC(=O)N3CN(CN(C3)C(=O)CCSC[C@H](NC(=O)[C@H](C)N)C(=O)N[C@@H](CO)C(=O)N[C@@H](Cc3ccccc3)C(=O)N3CCC[C@H]3C(=O)N[C@@H](CCCCN)C(=O)N2)C(=O)CCSC[C@@H](C(=O)N[C@@H](C)C(N)=O)NC(=O)CNC(=O)[C@H](CCC(=O)O)NC1=O [Peptide 2],Kd,EcPBP3 [18],5.23 nM
same,MIC E. coli ATCC 25922,E. coli ATCC 25922,> 16 µg/mL
same,Binding to other PBPs in E. coli (Bocillin FL staining),PBPs in E. coli,bound only to the active site of E. coli PBP3
same,Ki,EcPBP3 [19],< 9 nM
same,MIC E. coli GKCW102 (EcPore),E. coli GKCW102 (EcPore),0.5 to 2 µg/mL
same,MIC E. coli GKCW102 (EcPore),E. coli GKCW102 (EcPore); listed as peptide 2,0.5 to 2 µg/mL
same,MIC E. coli GKCW101 (WT),E. coli GKCW101 (WT),> 128 µg/mL
same,"IC50 (nM) by fluorescence polarisation with Bocillin FL as tracer, Geometric mean (Lower 95% CI of geo. Mean; Upper 95% CI of geo. Mean, n=number of values)",EcPBP3 [20],showed binding to EcPBP3
same,IC50,"EcPBP3 [20]; read-out: IC50 (nM) by fluorescence polarisation with Bocillin FL as tracer, Geometric mean (Lower 95% CI of geo. Mean; Upper 95% CI of geo. Mean, n=number of values)",602 nM
"CC(=O)N[C@@H](C)C(=O)N[C@H]1CSCCC(=O)N2CN3CN(C2)C(=O)CCSC[C@H](NC(=O)[C@H](CCCCNC(=N)N)NC(=O)[C@@H]2CCCN2C(=O)[C@H](Cc2ccccc2)NC(=O)[C@H](CO)NC1=O)C(=O)N1CCC[C@H]1C(=O)N[C@@H](Cc1c[nH]c2cc(Cl)ccc12)C(=O)N[C@@H](C(C)C)C(=O)N[C@@H](CCC(=O)O)C(=O)NCC(=O)N[C@H](C(=O)N[C@@H](C)C(N)=O)CSCCC3=O [Peptide 75, [-Ac]ACSFP[HArg]CP[6ClTrp]VEGCA] (Ac-ACSFP[hArg]CP[Trp(6-Cl)]VEGCA-NH2; linker 2-7-13 via TATA)",half-life at 5 μM,Mouse blood stability,684 min
